Measurements reported in paper PMC11851430, “Workflow for E3 Ligase Ligand Validation for PROTAC Development” (ACS Chemical Biology, 2025).

Columns and labels:
[1] = biological target: T1, AURKA (Homo sapiens, UniProt O14965); experiment: cell-based; parameters: species or system HEK293T; NanoBRET tracer displacement in intact cells, NanoLuc fusion protein, Tracer K10; settings: intact cells; read-out: AURKA intact (IC50±sd)/µM
T1 sequence (O14965 1-403): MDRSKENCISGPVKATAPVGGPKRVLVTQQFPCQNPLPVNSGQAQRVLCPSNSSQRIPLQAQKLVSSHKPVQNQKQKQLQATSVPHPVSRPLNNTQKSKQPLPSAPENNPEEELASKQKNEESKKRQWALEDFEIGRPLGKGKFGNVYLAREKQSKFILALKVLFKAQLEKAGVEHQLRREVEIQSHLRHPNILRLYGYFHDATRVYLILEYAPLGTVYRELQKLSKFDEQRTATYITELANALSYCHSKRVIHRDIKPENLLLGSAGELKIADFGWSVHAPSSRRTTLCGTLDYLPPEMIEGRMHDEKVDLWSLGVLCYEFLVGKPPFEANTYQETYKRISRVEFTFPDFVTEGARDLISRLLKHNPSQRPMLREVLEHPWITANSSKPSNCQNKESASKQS
Description: (§1) Compounds were pipetted at various concentrations using an Echo acoustic dispenser (Labcyte), immediately followed by Tracer K10 (Promega, Tracer DB ID: T000008) for AAK1 and Aurora A and VHL Tracer (Promega, Tracer DB ID: T000019) for VHL, at an optimum KD concentration chosen from TracerDB (tracerdb.org), respectively.

[2] = biological target: full-length AAK1 (Homo sapiens, UniProt Q2M2I8); experiment: cell-based; parameters: species or system HEK293T; NanoBRET tracer displacement in intact cells, NanoLuc fusion protein, Tracer K10; settings: intact cells; read-out: AAK1 intact (IC50±sd)/µM
Sequence of full-length AAK1 (Q2M2I8 whole entry, the tested form may be a part): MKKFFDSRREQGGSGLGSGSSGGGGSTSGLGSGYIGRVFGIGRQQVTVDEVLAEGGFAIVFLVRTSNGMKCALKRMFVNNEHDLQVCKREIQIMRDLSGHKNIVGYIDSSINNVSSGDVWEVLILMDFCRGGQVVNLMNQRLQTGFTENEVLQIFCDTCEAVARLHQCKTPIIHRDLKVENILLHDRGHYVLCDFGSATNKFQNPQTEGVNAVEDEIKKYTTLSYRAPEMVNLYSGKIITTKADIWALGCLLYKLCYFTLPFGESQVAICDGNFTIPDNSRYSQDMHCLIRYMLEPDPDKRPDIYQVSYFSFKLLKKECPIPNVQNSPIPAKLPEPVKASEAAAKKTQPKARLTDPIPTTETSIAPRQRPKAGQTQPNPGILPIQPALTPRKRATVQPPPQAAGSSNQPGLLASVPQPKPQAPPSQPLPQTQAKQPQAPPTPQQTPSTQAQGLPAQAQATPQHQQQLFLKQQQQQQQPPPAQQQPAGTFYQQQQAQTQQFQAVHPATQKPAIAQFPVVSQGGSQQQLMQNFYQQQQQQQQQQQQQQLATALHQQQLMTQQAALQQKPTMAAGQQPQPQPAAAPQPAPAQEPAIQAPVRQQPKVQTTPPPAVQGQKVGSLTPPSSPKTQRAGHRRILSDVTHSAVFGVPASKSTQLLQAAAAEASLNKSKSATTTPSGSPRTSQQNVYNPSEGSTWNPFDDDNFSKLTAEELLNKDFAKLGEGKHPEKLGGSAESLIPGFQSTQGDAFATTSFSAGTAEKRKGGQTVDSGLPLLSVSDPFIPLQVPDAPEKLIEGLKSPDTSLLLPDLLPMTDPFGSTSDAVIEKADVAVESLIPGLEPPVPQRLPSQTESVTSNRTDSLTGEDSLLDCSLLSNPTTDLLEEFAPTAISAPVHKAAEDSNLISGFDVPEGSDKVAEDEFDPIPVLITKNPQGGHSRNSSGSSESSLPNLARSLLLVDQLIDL
Description: as §1

[3] = biological target: T2, kinase protein levels in MCF-7 cells (Homo sapiens, UniProt A0A024RBG1); experiment: TMT-labeled quantitative proteomics; type: cell-based; settings: protein NUDT4B; MCF7; 1 µM; set2
T2 construct: endogenous in cells; host or cells: MCF-7
T2 sequence (A0A024RBG1 whole entry): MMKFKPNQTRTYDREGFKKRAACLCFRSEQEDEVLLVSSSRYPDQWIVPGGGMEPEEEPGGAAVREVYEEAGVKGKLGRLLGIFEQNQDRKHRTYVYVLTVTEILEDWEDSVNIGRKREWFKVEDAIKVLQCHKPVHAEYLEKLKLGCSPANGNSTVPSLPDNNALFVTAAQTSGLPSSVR

[4] = biological target: T3, kinase protein levels in MCF-7 cells (Homo sapiens, UniProt P0DPI2); experiment: TMT-labeled quantitative proteomics; type: cell-based; settings: protein GATD3; MCF7; 1 µM; set2
T3 construct: endogenous in cells; host or cells: MCF-7
T3 sequence (P0DPI2 42-268): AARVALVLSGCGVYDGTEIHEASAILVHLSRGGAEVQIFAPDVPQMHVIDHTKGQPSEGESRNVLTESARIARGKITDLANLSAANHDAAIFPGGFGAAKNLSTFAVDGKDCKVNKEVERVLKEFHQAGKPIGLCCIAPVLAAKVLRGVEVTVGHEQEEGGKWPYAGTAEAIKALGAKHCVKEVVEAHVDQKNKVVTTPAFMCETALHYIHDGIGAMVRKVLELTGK

[5] = biological target: T4, kinase protein levels in MCF-7 cells (Homo sapiens, UniProt A0A0U1RRE5); experiment: TMT-labeled quantitative proteomics; type: cell-based; settings: protein NBDY; MCF7; 1 µM; set2
T4 construct: endogenous in cells; host or cells: MCF-7
T4 sequence (A0A0U1RRE5 1-68): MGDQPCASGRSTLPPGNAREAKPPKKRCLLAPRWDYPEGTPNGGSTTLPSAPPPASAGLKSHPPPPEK

Cc1ncsc1-c1ccc(CNC(=O)[C@@H]2C[C@H](O)CN2C(=O)[C@@H](NC(=O)CCOCCOCCOCCN2CCN(c3cc(Nc4cc(C5CC5)[nH]n4)nc(Nc4ccc(CC#N)cc4)n3)CC2)C(C)(C)C)cc1 [4-a^neg]
IC50 [1]: 5.04 ± 1.12 µM | IC50 [2]: 0.108 ± 0.042 µM

CC(=O)N[C@H](C(=O)N1C[C@H](O)C[C@H]1C(=O)NCc1ccc(-c2scnc2C)cc1OCCOCCOCCOCCNC(=O)c1cc(Nc2cc(C3CC3)[nH]n2)nc(Nc2ccc(CC#N)cc2)n1)C(C)(C)C [5-b]
P.Value (compound/DMSO) [3]: 0.01265 | log2FC (compound/DMSO) [3]: -0.4511 | P.Value (compound/DMSO) [4]: 0.01692 | log2FC (compound/DMSO) [4]: -0.3786 | P.Value (compound/DMSO) [5]: 0.05637 | log2FC (compound/DMSO) [5]: -0.3112

CC(=O)N[C@H](C(=O)N1C[C@H](O)C[C@H]1C(=O)NCc1ccc(-c2scnc2C)cc1OCCOCCOCCOCCOCCC(=O)N1CCN(c2ccc(Nc3ncc(Cl)c(Nc4ccccc4C(N)=O)n3)cc2)CC1)C(C)(C)C [6-e]
P.Value (compound/DMSO) [3]: 0.2879 | log2FC (compound/DMSO) [3]: 0.1111 | P.Value (compound/DMSO) [4]: 0.4778 | log2FC (compound/DMSO) [4]: 0.0741 | P.Value (compound/DMSO) [5]: 0.09776 | log2FC (compound/DMSO) [5]: 0.2849
